# According to patent US20220098646A1, “DETECTION METHOD OF PAN-RESISTANT K. PNEUMONIAE, SCREENING METHOD OF ANTIMICROBIAL AGENTS, AND RECORDING MEDIA AND DATABASE” (TEIKYO UNIVERSITY, priority 2019, published 2022):
# Test system: K. pneumoniae TK1401
# Assay: Antimicrobial susceptibility testing, MicroScan WalkAway apparatus
# Type: cell-based, Klebsiella pneumoniae
# Details: K. pneumoniae isolate TK1401; MicroScan WalkAway; CLSI M100-S24 breakpoints
# Procedure: (§1) Testing was performed using a MicroScan WalkAway apparatus (Beckman Coulter, Brea, Calif., USA). The minimal inhibitory concentration (MIC) of colistin was confirmed using the Etest (bioMérieux, Marcy l'Etoile, France) and the broth microdilution method. Antimicrobial susceptibility was defined according to breakpoints listed in the Clinical and Laboratory Standards Institute (CLSI) guidelines (M100-S24).
row,Compound,Minimum inhibitory concentration
1,CO[C@@]1(NC(=O)CSCC#N)C(=O)N2C(C(=O)O)=C(CSc3nnnn3C)CS[C@@H]21 [Cefmerazole],>32 µg/mL
2,CO/N=C(\C(=O)N[C@@H]1C(=O)N2C(C(=O)O)=C(COC(C)=O)CS[C@H]12)c1csc(N)n1 [Cefotaxim],>2 µg/mL
3,Gentamicin,>8 µg/mL

# Same assay, conditions: Klebsiella pneumoniae; K. pneumoniae isolate TK1401; MicroScan WalkAway; CLSI M100-S24 breakpoints; read-out: Minimum inhibitory concentration
row,Compound,MIC
1,NCC[C@H](O)C(=O)N[C@@H]1C[C@H](N)[C@@H](O[C@H]2O[C@H](CN)[C@@H](O)[C@H](O)[C@H]2O)[C@H](O)[C@H]1O[C@H]1O[C@H](CO)[C@@H](O)[C@H](N)[C@H]1O [Amikacin],> 32 µg/mL
2,CC1(C)S[C@@H]2[C@H](NC(=O)[C@H](N)c3ccc(O)cc3)C(=O)N2[C@H]1C(=O)O [Amoxicillin],> 16 µg/mL
3,CC1(C)S[C@@H]2[C@H](NC(=O)[C@H](N)c3ccccc3)C(=O)N2[C@H]1C(=O)O [Ampicillin],> 16 µg/mL
4,N[C@@H](C(=O)N[C@@H]1C(=O)N2C(C(=O)O)=C(Cl)CS[C@H]12)c1ccccc1 [Cefaclor],> 16 µg/mL
5,Cc1nnc(SCC2=C(C(=O)O)N3C(=O)[C@@H](NC(=O)Cn4cnnn4)[C@H]3SC2)s1 [Cefazolin],> 16 µg/mL
6,C=CC1=C(C(=O)O)N2C(=O)[C@@H](NC(=O)/C(=N\O)c3csc(N)n3)[C@H]2SC1 [Cefdinir],> 2 µg/mL
7,CO/N=C(\C(=O)N[C@@H]1C(=O)N2C(C(=O)[O-])=C(C[N+]3(C)CCCC3)CS[C@H]12)c1csc(N)n1 [Cefepime],> 2 µg/mL
8,CN(C)CCn1nnnc1SCC1=C(C(=O)O)N2C(=O)[C@@H](NC(=O)Cc3csc(N)n3)[C@H]2SC1 [Cefotiam],> 16 µg/mL
9,CO/N=C(\C(=O)N[C@@H]1C(=O)N2C(C(=O)[O-])=C(C[n+]3ccn4ncccc43)CS[C@H]12)c1nsc(N)n1 [Cefozopran],> 16 µg/mL
10,COCC1=C(C(=O)O)N2C(=O)[C@@H](NC(=O)/C(=N\OC)c3csc(N)n3)[C@H]2SC1 [Cefpodoxime],> 4 µg/mL
11,CC(C)(O/N=C(\C(=O)N[C@@H]1C(=O)N2C(C(=O)[O-])=C(C[n+]3ccccc3)CS[C@H]12)c1csc(N)n1)C(=O)O [Ceftazidime],> 16 µg/mL
12,CO/N=C(\C(=O)N[C@@H]1C(=O)N2C(C(=O)O)=C(CSc3nc(=O)c(=O)[nH]n3C)CS[C@H]12)c1csc(N)n1 [Ceftriaxone],> 16 µg/mL
13,C[C@@H](O)[C@H]1C(=O)N2C(C(=O)O)=C(S[C@@H]3CN[C@H](CNS(N)(=O)=O)C3)[C@H](C)[C@H]12 [Doripenem],> 8 µg/mL
14,CO[C@@]1(NC(=O)CSC(F)F)C(=O)N2C(C(=O)O)=C(CSc3nnnn3CCO)CO[C@@H]21 [Flomoxef],> 32 µg/mL
15,C[C@@H](O)[C@H]1C(=O)N2C(C(=O)O)=C(SCCN=CN)C[C@H]12 [Imipenem],> 8 µg/mL
16,C[C@H]1COc2c(N3CCN(C)CC3)c(F)cc3c(=O)c(C(=O)O)cn1c23 [Levofloxacin],> 4 µg/mL
17,C[C@@H](O)[C@H]1C(=O)N2C(C(=O)O)=C(S[C@@H]3CN[C@H](C(=O)N(C)C)C3)[C@H](C)[C@H]12 [Meropenem],> 8 µg/mL
18,CCN1CCN(C(=O)N[C@@H](C(=O)N[C@@H]2C(=O)N3[C@@H]2SC(C)(C)[C@@H]3C(=O)O)c2ccccc2)C(=O)C1=O [Piperacillin],> 64 µg/mL
19,NC[C@H]1O[C@H](O[C@H]2[C@H](O)[C@@H](O[C@H]3O[C@H](CO)[C@@H](O)[C@H](N)[C@H]3O)[C@H](N)C[C@@H]2N)[C@H](N)C[C@@H]1O [Tobramycin],> 8 µg/mL

# Same assay, conditions: breakpoints of CLSI guidelines M100-S24
row,Compound,Antimicrobial susceptibility of the isolate (in words)
1,C[C@@H]1O[C@@H]1P(=O)(O)O [Fosfomycin],not susceptible

# Test system: K. pneumoniae TK1401
# Assay: Antimicrobial susceptibility testing, broth microdilution method
# Type: cell-based, Klebsiella pneumoniae
# Details: K. pneumoniae isolate TK1401; broth microdilution method (footnote b)
# Procedure: as §1
row,Compound,Minimum inhibitory concentration
1,Colistin,64 µg/mL
2,Polymyxin B,64 µg/mL

# Same assay, conditions: Klebsiella pneumoniae, TK1401, read-out: Minimum inhibitory concentration
row,Compound,MIC
1,CN(C)c1cc(NC(=O)CNC(C)(C)C)c(O)c2c1C[C@H]1C[C@H]3[C@H](N(C)C)C(O)=C(C(N)=O)C(=O)[C@@]3(O)C(O)=C1C2=O [Tigecycline],16 µg/mL

# Same assay, conditions: Klebsiella pneumoniae; K. pneumoniae isolate TK1401; broth microdilution method (footnote b); read-out: Minimum inhibitory concentration
row,Compound,MIC
1,NCC[C@H](O)C(=O)N[C@@H]1C[C@H](N)[C@@H](O[C@H]2O[C@H](CN)CC[C@H]2N)[C@H](O)[C@H]1O[C@H]1O[C@H](CO)[C@@H](O)[C@H](N)[C@H]1O [Arbekacin],> 256 µg/mL
2,O=C(N[C@H](CO)[C@H](O)c1ccc([N+](=O)[O-])cc1)C(Cl)Cl [Chloramphenicol],> 256 µg/mL
3,C[C@@H]1O[C@@H]1P(=O)(O)O [Fosfomycin],> 256 µg/mL
4,CN(C)c1ccc(O)c2c1C[C@H]1C[C@H]3[C@H](N(C)C)C(O)=C(C(N)=O)C(=O)[C@@]3(O)C(O)=C1C2=O [Minocycline],256 µg/mL
